One may read the IC50 as the point on the concentration scale where inhibition reaches its midpoint.

Series [1] deals with HIV-1 reverse transcriptase (RNase H) (Human immunodeficiency virus type 1 group M subtype B, UniProt P04585). In words: ASH assay: RNase H mediated RNA cleavage (ECL format, BioVeris M384). It is filed as biochemical. How it is done: Potency of a substance as an RNase H inhibitors can be determined by measuring its ability prevent RNase H catalyzed cleavage of the RNA strand in a RNA/DNA hybrid duplex substrate. RNase H activity is measured using a substrate generated by annealing the oligoribo-nucleotide 5′-rCrCrUrCrUrCrArArArArArCrArGrGrArGrCrArGrArArArGrArCrArArG (SEQ ID NO:1) to the oligodeoxyribonucleotide 5′-Biotin-[…] (SEQ ID NO:2). […] (SEQ ID NO:3). The resulting double-stranded duplex DNA product is quantitated in an ALPHA screen format using [streptavidin- and anti-fluorescein-coated beads (Packard Bioscience) following the manufacturer's guidelines and reading on a Fusion AlphaScreen instrument. Alternatively, the released 5′-Biotinylated DNA is annealed to a complementary oligodeoxyribonucleotide: 5′-ruthenium-[…] (SEQ ID NO:3). The resulting double-stranded duplex DNA product is quantitated in an ECL screen format using Dynabeads M280 coated with streptavidin (BioVeris Corporation) following the manufacturer's guidelines and reading on a BioVeris M384 Analyzer.

In a further series the target is HIV integrase (Human immunodeficiency virus type 1 group M subtype B, UniProt P04585). The series is described as follows: integrase strand transfer assay (STA). It is filed as biochemical.
A further series has as its system HXB2 virus. In words: microbe, parasite or virus in culture. It counts as cell-based, HIV. The gist of the method:
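Single-cycle infectivity assay in HeLa P4-2 cells measuring inhibition of acute HIV infection, using HXB2 virus.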

The next series concerns HeLa P4-2 cell line. The settings on record: human. An excerpt:
The HeLa P4-2 cell line used in the single cycle HIV infectivity Assay B of Example 270 was also used to determine compound cytotoxicity in the absence of viral infection.

Where [2] appears, read: IC50 in the STA assay, integrase strand transfer.
Where [3] appears, read: STA (IC50, μM), integrase strand-transfer assay, Example 269.
Where [4] appears, read: Human immunodeficiency virus 1, HXB2, HeLaP4-2, read-out: SCIA-B (IC50, μM).
The mark [5] stands for this setting: Human immunodeficiency virus 1, HXB2, HeLaP4-2, read-out: antiviral IC50 (SCIA-B).
Where [6] appears, read: RNase H mediated RNA cleavage assay, Example 269, read-out: ASH (IC50).
Setting [7] is: integrase strand transfer, read-out: IC50 in the STA assay.
The mark [8] stands for this setting: integrase strand-transfer assay, Example 269, read-out: STA (IC50).

Like-named read-outs stand apart in the source and are kept apart here.

For the molecule `O=c1cc(NCc2ccccn2)c2cccnc2n1O` [Example 149, 1-hydroxy-4-[(2-pyridinylmethyl)amino]-1,8-naphthyridin-2(1H-one)], the IC50 in series [1] was 140 nM; at HIV integrase (setting [2]), less than 50 µM; on HIV integrase (setting [3]), 0.7 µM; in the series on HXB2 virus (setting [4]), 0.06 µM; in the series on HXB2 virus (setting [5]), less than 100 µM. In the series on HeLa P4-2 cell line, the “Cytotoxicity (LD50, μM)” value was determined as 5.2 µM.
`CN1CCN(Cc2cccc(CNc3cc(=O)n(O)c4ncccc34)c2)CC1` [Example 150, 1-hydroxy-4-({3-[(4-methyl-1-piperazinyl)methyl]benzyl}amino)-1,8-naphthyridin-2(1H-one)]: the IC50 in series [1] was 150 nM; at HIV integrase (setting [2]), less than 50 µM; against HIV integrase (setting [3]) it was 1.7 µM; in the series with HXB2 virus (setting [4]), 0.07 µM; in the series on HXB2 virus (setting [5]) it was less than 100 µM. The “Cytotoxicity (LD50, μM)” value with HeLa P4-2 cell line is 14 µM.
With `O=c1cc(NCc2cccc(CN3CCOCC3)c2)c2cccnc2n1O` [Example 151, 1-hydroxy-4-{[3-(4-morpholinylmethyl)benzyl]amino}-1,8-naphthyridin-2(1H-one)], the IC50 in series [1] was 160 nM; against HIV integrase (setting [2]), less than 50 µM; at HIV integrase (setting [3]), 0.23 µM; with HXB2 virus (setting [4]), 0.13 µM; with HXB2 virus (setting [5]), less than 100 µM. The “Cytotoxicity (LD50, μM)” value with HeLa P4-2 cell line worked out at 15 µM.
Take `O=c1cc(NC2CCN(c3ccccc3)CC2)c2cccnc2n1O` [Example 154, 1-hydroxy-4-[(1-phenyl-4-piperidinyl)amino]-1,8-naphthyridin-2(1H-one)]: the IC50 in series [1] was 200 nM; at HIV integrase (setting [2]), less than 50 µM; at HIV integrase (setting [3]), 1.7 µM; with HXB2 virus (setting [4]), 0.27 µM; with HXB2 virus (setting [5]) it was less than 100 µM. In the series on HeLa P4-2 cell line, the “Cytotoxicity (LD50, μM)” value was 7.2 µM.
For `CN(C)CCC(Nc1cc(=O)n(O)c2ncccc12)c1ccccc1` (stereo not drawn) [Example 158, 4-{[3-(dimethylamino)-1-phenylpropyl]amino}-10hydroxy-1,8-naphthyridin-2(1H-one)], the IC50 is 360 nM in series [1]; less than 50 µM at HIV integrase (setting [2]); 6.5 µM against HIV integrase (setting [3]); 0.24 µM in the series on HXB2 virus (setting [4]); less than 100 µM in the series on HXB2 virus (setting [5]). The “Cytotoxicity (LD50, μM)” value in the series with HeLa P4-2 cell line was 16 µM.
Consider `NCc1ccccc1CNc1cc(=O)n(O)c2ncccc12` [Example 163, 4-{[2-(aminomethyl)benzyl]amino}-1-hydroxy-1,8-naphthyridin-2 (1H-one)], for which the IC50 in series [1] is 180 nM; against HIV integrase (setting [2]), more than 50 µM; against HIV integrase (setting [3]), more than 50 µM; with HXB2 virus (setting [4]) it was 0.14 µM; in the series on HXB2 virus (setting [5]), less than 100 µM. Further, the “Cytotoxicity (LD50, μM)” value with HeLa P4-2 cell line was determined as 50 µM.
Take `NCc1cccc(-c2cc(=O)n(O)c3ncccc23)c1` [Example 172, 4-[3-(aminomethyl)phenyl]-1-hydroxy-1,8-naphthyridin-2(1H)-one]: the IC50 in series [1] is 140 nM; against HIV integrase (setting [2]), less than 50 µM; on HIV integrase (setting [3]) it was 0.22 µM; in the series on HXB2 virus (setting [4]), 0.26 µM; in the series with HXB2 virus (setting [5]), less than 100 µM. For the same molecule, the “Cytotoxicity (LD50, μM)” value in the series with HeLa P4-2 cell line is 5.5 µM.
For `CCOC(=O)c1c(O)c2c(-c3cccc(CN(C)C)c3)ccnc2n(O)c1=O` [Example 230, ethyl 5-{3-[(dimethylamino)methyl]phenyl}-1,4-dihydroxy-2-oxo-1,2-dihydro-1,8-naphthyridine-3-carboxylate], the IC50 in series [1] (setting [6]) is 110 nM; on HIV integrase (setting [7]) it was less than 50 µM; at HIV integrase (setting [8]) it was 2.3 µM; in the series with HXB2 virus (setting [4]) it was 0.77 µM; in the series with HXB2 virus (setting [5]), less than 100 µM. Also, the “Cytotoxicity (LD50, μM)” value in the series on HeLa P4-2 cell line is more than 100 µM.
For the molecule `NCc1cccc(-c2cccc(Cc3cc(=O)n(O)c4ncccc34)c2)c1` [Example 231, 4-{[3′-(aminomethyl)biphenyl-3-yl]methyl}-1-hydroxy-1,8-naphthyridin-2(1 H)-one], the IC50 in series [1] (setting [6]) is 340 nM; at HIV integrase (setting [7]) it was less than 50 µM; on HIV integrase (setting [8]) it was 1.1 µM; in the series with HXB2 virus (setting [4]), 0.29 µM; in the series on HXB2 virus (setting [5]), less than 100 µM. Also, the “Cytotoxicity (LD50, μM)” value with HeLa P4-2 cell line worked out at 10 µM.
As for `NCc1ccc(-c2ccc(Cc3cc(=O)n(O)c4ncccc34)cc2)cc1` [Example 235, 4-{[4′-(aminomethyl)biphenyl-4-yl]methyl}-1-hydroxy-1,8-naphthyridin-2(1H)-one], the IC50 is 46 nM in series [1]; more than 50 µM against HIV integrase (setting [2]); more than 50 µM against HIV integrase (setting [3]); 0.13 µM in the series on HXB2 virus (setting [4]); less than 100 µM in the series on HXB2 virus (setting [5]). Moreover, the “Cytotoxicity (LD50, μM)” value in the series on HeLa P4-2 cell line came to 7.8 µM.
For `O=c1cc(Cc2ccc(CCc3ccc(F)cc3F)cc2)c2cccnc2n1O` [Example 236, 4-{4-[2-(2,4-difluorophenyl)ethyl]benzyl}-1-hydroxy-1,8-naphthyridin-2(1H)-one], the concentration for half-maximal inhibition (IC50) in series [1] was 120 nM; against HIV integrase (setting [2]), less than 50 µM; at HIV integrase (setting [3]) it was 0.05 µM; with HXB2 virus (setting [4]) it was 0.26 µM; in the series on HXB2 virus (setting [5]) it was less than 100 µM. Besides, in the series with HeLa P4-2 cell line, the “Cytotoxicity (LD50, μM)” value stood at 21 µM.
Turning to `CCOC(=O)c1ccnc2c1c(-c1ccc(-c3ccc(CN)cc3)cc1)cc(=O)n2O` [Example 241, Ethyl 5-[4′-(aminomethyl)biphenyl-4-yl]-8-hydroxy-7-oxo-7,8-dihydro-1,8-naphthyridine-4-carboxylate], the IC50 in series [1] (setting [6]) is 290 nM; at HIV integrase (setting [7]) it was less than 50 µM; at HIV integrase (setting [8]), 6.2 µM; in the series with HXB2 virus (setting [4]), 0.32 µM; in the series on HXB2 virus (setting [5]), less than 100 µM. Besides, in the series with HeLa P4-2 cell line, the “Cytotoxicity (LD50, μM)” value was 3.8 µM.
As for `NCc1ccc(-c2ccc(-c3c(-c4ccccc4)c(=O)n(O)c4ncc(F)cc34)cc2)cc1` [Example 242, 4-[4′-(aminomethyl)biphenyl-4-yl]-6-fluoro-1-hydroxy-3-phenyl-1,8-naphthyridin-2-(1H)-one], the IC50 in series [1] is 180 nM; against HIV integrase (setting [2]) it was less than 50 µM; on HIV integrase (setting [3]) it was 7.4 µM; in the series with HXB2 virus (setting [4]), 0.25 µM; in the series on HXB2 virus (setting [5]), less than 100 µM. Besides, in the series with HeLa P4-2 cell line, the “Cytotoxicity (LD50, μM)” value amounted to 310 µM.
As for `O=c1cc(N2CCc3ccc(-c4cccnc4)cc3C2)c2cccnc2n1O` [Example 255, 1-hydroxy-4-(7-pyridin-3-yl-3,4-dihydroisoquino1in-2(1H)-yl)-1,8-naphthyridin-2(1H)-one], the IC50 in series [1] is 120 nM; at HIV integrase (setting [2]), less than 50 µM; against HIV integrase (setting [3]), 1.8 µM; with HXB2 virus (setting [4]), 0.17 µM; in the series on HXB2 virus (setting [5]), less than 100 µM. Further, the “Cytotoxicity (LD50, μM)” value in the series on HeLa P4-2 cell line was 5.1 µM.
As for `NCc1ccc(-c2ccc3c(c2)CN(c2cc(=O)n(O)c4ncccc24)C3)cc1` [Example 257, 4-{5-[4-(aminomethyl)phenyl]-1,3-dihydro-2H-isoindol-2-yl}-1-hydroxy-1,8-naphthyridin-2(1H)-one], the IC50 was 33 nM in series [1]; less than 50 µM against HIV integrase (setting [2]); 46 µM against HIV integrase (setting [3]); 0.35 µM in the series with HXB2 virus (setting [4]); less than 100 µM with HXB2 virus (setting [5]). Moreover, the “Cytotoxicity (LD50, μM)” value in the series on HeLa P4-2 cell line amounted to 49 µM.

The values above are taken from patent US20100056516A1 (priority 2006, published 2010).
